“Also recorded” adds a separate entry of the source. Like-named read-outs stand apart in the source and are kept apart here.
Experiments:
[1] = tested on: neuroblastoma N1E-115 cells; test: Growth and morphological differentiation of mouse neuroblastoma N1E-115 cells; details: for range of effective concentrations that inhibited cell proliferation and induced morphological differentiation / effects on cell appearance: N1E-115 cells; for range of effective concentrations that inhibited cell proliferation and induced morphological differentiation: below range no noticeable effect, above range cytotoxic; for effects on cell appearance: morphology; for most effective concentration for the cells tested: summary, cells tested in the present invention; for effects on cell growth and differentiation / effect on cell division and morphological differentiation / long-term effect on cell division: single application; for effect on cell division and morphological differentiation: 3 days; for long-term effect on cell division: 6 days
Protocol: A,B: Untreated cells, 3 (A) and 8 (B) days after subculture. C,D: Cells grown for 3 (C) and 8 (D) days with 12.8 μM Debromoshermilamine. E,F: Cells grown for 7 days with Isosegoline A (39 μM) and Norsegoline (16.3 μM), respectively.
A,B: Untreated cells 3 (A) and 6 (B) days after subculture. C,D: Cells grown for 3 (C) and 6 (D) days with 50 μM forskolin. E,F: Cells grown for 3 (E) and 6 (F) days with 39 μM Segoline A. G,H: Cells grown for 3 (G) and 6 (H) days with 0.14 μM Eilatin.
Cells were grown for six days in the absence of drugs (A), or in the presence of: 10 μM 4-methylpyrido[2,3,4-kl]acridine (B), 4 μM pyrido[2,3,4-kl]acridine (C), 0.08 μM Eilatin (D), 75 μM forskolin (E).
The inventors chose the neuroblastoma N1E-115 cells because these tumor-derived cells can be induced to express characteristic neuronal properties by a variety of procedures see Spector, "Electrophysiology of clonal nerve cell lines. In: Excitable Cells in Tissue Culture", Nelson et al. eds., Plenum, New York 247-277 (1981) and can serve as a useful experimental system in which to explore the effects of the Eudistoma alkaloids on the biological properties of both cancer cells and neuronal cells.
The N1E-115 cells were exposed to various concentrations of the six (6) natural products shown in FIG. 1, and of the two synthetic pyridoacridines shown in Scheme III of FIG. 2. […] A,B: Untreated cells, 3 (A) and 8 (B) days after subculture. C,D: Cells grown for 3 (C) and (8) days with 12.8 μM Debromoshermilamine. E,F: Cells grown for 7 days with Isosegoline A (39 μM) and Norsegoline (16.3 μM), respectively. FIG. 5 illustrates the appearance of N1E-115 cells 6 days after replating in the absence (A) and in the presence of 10 μM 4-methylpyrido[2,3,4-kl]acridine (B), or 4 μM pyrido[2,3,4-kl]acridine.

[2] = tested on: normal hamster fibroblast NIL8 cell line; test: Growth and morphology of normal NIL8 fibroblast cells; assay type: cell-based; details: single application
[3] = tested on: type II cAMP-dependent protein kinase; details: literature; cited from earlier work
pyruvate kinase = test: Pyruvate kinase activity in cultured rat hepatoma FAO cells; assay type: cell-based; details: for Km: control 0.14, read-out: Km for the substrate phosphoenolpyruvate (PEP)
Protocol: FIG. 11 is a graph showing the effects of the Eudistoma alkaloids on pyruvate kinase activity in cultured rat hepatoma FAO cells. Enzyme activity v/Vmax was assayed as described in Example IV in partially purified extracts from cells incubated for 1 h in the absence ( ) or presence of 100 μM CPT-cAMP (.cndot.) and 26 μM segoline A ( ) as a function of substrate concentrations (phosphoenolpyruvate, PEP).
1. Activity of pyruvate kinase--a key glycolytic enzyme whose activity is inhibited by cAMP-dependent phosphorylation.
FIG. 11 is a graph showing the effects of the Eudistoma alkaloids on pyruvate kinase activity in cultured rat hepatoma FAO cells. Enzyme activity v/Vmax was assayed in partially purified extracts from cells incubated for 1 h in the absence (squares) or presence of 100 μM 8-(4-chlorophenylthio) cyclic AMP (CPT-cAMP)-CPT-cAMP (circles) and 26 μM Segoline A (triangles) as a function of substrate concentrations (phosphoenolpyruvate, PEP).

NIL8-HSV cells = tested on: NIL8-HSV cells
Protocol: A-D Cells grown for 6 days in the absence of drugs (A), or in the presence of 75 μM forskolin (B), 13 μM Segoline B (C) or 0.21 μM Eilatin (D). E and F show the appearance of the Segoline B- and Eilatin-treated cells, 7 days after removal of the toxins.
A: F-actin staining in control cells. B: F-actin staining in a cell treated for 4 days with 13 μM Segoline B.
Cells were grown for 6 days in the absence of drugs (A), or in the presence of 10 μM 4-methylpyrido[2,3,4-kl]acridine (B), 4 μM pyrido[2,3,4-kl]acridine (C), 0.08 μM eilatin (D), or 75 μM forskolin (E).
As reviewed by Willingham, Int. Rev. […] Transformed fibroblasts which display altered growth patterns and aberrant morphologies respond to cAMP elevation by restoration of many normal aspects of growth and morphology, a phenomenon known as "cAMP-mediated reverse transformation" as described by Lockwood et al., J. Cell. Biochem., 33, 237-255 (1987).
A-D show cells grown for 6 days in the absence of drugs (A), or in the presence of 75 μM forskolin (B), 13 μM Segoline B (C) or 0.21 μM Eilatin (D). E and F show the appearance of the Segoline B- and Eilatin-treated cells, 7 days after removal of the toxins.
A: F-actin staining in control cells.

[4] = tested on: normal hamster fibroblast NIL8 cell line; test: Growth and morphology of normal NIL8 fibroblast cells; assay type: cell-based
Protocol: Cells were grown for 5 days in the absence of drugs (A), and in the presence of 25 μM forskolin (B), 1.4 μM Eilatin (C), or 12.8 μM Debromoshermilamine (D). […]
As illustrated, a single application of 1.4 μM Eilatin or 12.8 μM Debromoshermilamine to NIL8 cells produced effects which are strikingly similar to those obtained by chronically treating time cells with agents that elevate or mimic cAMP. […] This predilection towards cancer cells is a very desirable property in developing potential drugs for the treatment of cancer.

[5] = 1.4 μM Eilatin, 5 days, single application

## COc1cc2c3c4c(ccnc14)-c1ccccc1N3C(C)C1(C)C(=O)NC(=O)C21 (single isomer, unassigned) [Isosegoline A]
[1]
  range of effective concentrations that inhibited cell proliferation and induced morphological differentiation: 12-52 μM
  effects on cell appearance: flattened cell bodies as well as numerous long neurites
  most effective concentration for the cells tested: 12 to 52 µM

## Cc1ccc2c3c(ccnc13)-c1ccccc1N2 [4-methylpyrido[2,3,4-kl]acridine]
[2]; 10 μM 4-methylpyrido[2,3,4-kl]acridine, 6 days
  effect on NIL8 cells: effects which were similar to those produced by the natural alkaloids
[1]
  range of effective concentrations that inhibited cell proliferation and induced morphological differentiation: 7.5-12.5 μM
  effects on cell appearance: most neurites were short
  most effective concentration for the cells tested: 7.5 to 12.5 µM

## Nc1ncnc2c1nc(Cl)n2[C@@H]1O[C@@H]2COP(=O)(O)O[C@H]2[C@H]1O [8-chloro-cAMP, reference compound]
[1]; 8-chloro cAMP 250 μM
  effects on cell growth and differentiation: transient effects
[3]
  preferential binding to type II cAMP-dependent protein kinase: bind preferentially to type II cAMP-dependent protein kinase

## Nc1ncnc2c1nc(Sc1ccc(Cl)cc1)n2[C@@H]1O[C@@H]2COP(=O)(O)O[C@H]2[C@H]1O [CPT-cAMP, 8-(4-chlorophenylthio) cyclic AMP, reference compound]
Pyruvate kinase; 100 μM CPT-cAMP, 1 h
  Km: 520 µM
[1]; CPT-cAMP 250-500 μM
  effects on cell growth and differentiation: transient effects
[3]
  preferential binding to type II cAMP-dependent protein kinase: bind preferentially to type II cAMP-dependent protein kinase

## c1ccc2c(c1)nc1c3nc4ccccc4c4ccnc(c5nccc2c51)c43 [Eilatin]
[2]; 0.08 μM Eilatin
  effect on NIL8 cells: no effects on NIL8 cells; also recorded: did not exert any effect on the normal NIL8 cells
NIL8-HSV cells
  cytotoxicity to transformed cells versus normal cells: more cytotoxic to transformed cells than to normal cells
NIL8-HSV cells; 0.08 μM Eilatin
  reverse transformation in NIL8-HSV cells: reverse transformation in NIL8-HSV cells
NIL8-HSV cells; 0.21 μM Eilatin, one application
  reversal of the effects of transformation: permanently reverse the effects of transformation
NIL8-HSV cells; 0.21 μM Eilatin, FIG. 8D
  effects on cell shape and actin organization: became large and flat and showed the typical network of stress fibers
NIL8-HSV cells; 7 days after removal of 0.21 μM Eilatin
  growth and morphology after drug removal: maintained their reduced growth and flattened morphology
[1]; 0.08 μM Eilatin
  differentiation in N1E-115 cells: produced differentiation in N1E-115 cells
[1]; 0.14 μM Eilatin
  effect on cell division and morphological differentiation: inhibited cell division and induced morphological differentiation
  long-term effect on cell division: cell division is completely blocked
[1]; 1.4 μM Eilatin, N1E-115 ("both the transformed cell lines")
  toxicity to transformed cells: toxic to both the transformed cell lines
[1]
  range of effective concentrations that inhibited cell proliferation and induced morphological differentiation: 0.05-0.5 μM
  effects on cell appearance: flattened cell bodies as well as numerous long neurites
  most effective concentration for the cells tested: 0.05 to 0.5 µM
[1]; actions at the cellular level
  potency relative to the other five naturally occurring compounds and the synthetic pyridoacridines: 100 times
[4]; [5]
  effect on cell shape of NIL8 cells: more elongated
  effect on growth of NIL8 cells: growth was inhibited
[4]; at concentrations that induce differentiation and reverse transformation of transformed cells
  effect on normal cells: no effect on normal cells

## COC(=O)c1cc(OC)c2nccc3c2c1Nc1ccccc1-3 [Norsegoline]
Pyruvate kinase; concentration of alkaloid not given
  Km: 400 µM
Pyruvate kinase; submaximal substrate concentrations
  inhibition of pyruvate kinase activity: inhibit pyruvate kinase activity
Pyruvate kinase; versus control
  rise in the Km for substrate (phosphoenolpyruvate): ca. 3 fold
[1]
  range of effective concentrations that inhibited cell proliferation and induced morphological differentiation: 8-40 μM
  effects on cell appearance: relatively small cell bodies and numerous long neurites
  most effective concentration for the cells tested: 8 to 40 µM

## COc1cc2c3c4c(ccnc14)-c1ccccc1N3C1(C)C(=O)NC(=O)C2C1C (centres unmarked) [Segoline B]
NIL8-HSV cells; 13 μM Segoline B, one application
  reversal of the effects of transformation: permanently reverse the effects of transformation
NIL8-HSV cells; 13 μM Segoline B, FIGS. 8C, 9B
  effects on cell shape and actin organization: became large and flat and showed the typical network of stress fibers
NIL8-HSV cells; 7 days after removal of 13 μM Segoline B
  growth and morphology after drug removal: maintained their reduced growth and flattened morphology

## C=C[C@@]1(C)CC(=O)[C@]2(O)[C@@]3(C)[C@@H](O)CCC(C)(C)[C@@H]3[C@H](O)[C@H](OC(C)=O)[C@@]2(C)O1 [forskolin, reference compound]
NIL8-HSV cells; 75 μM forskolin, 6 days (FIG. 8B)
  long-term effect on transformed phenotype: reverted to the transformed phenotype
NIL8-HSV cells; forskolin 50-100 μM, single application, data not shown
  reversal of the effects of transformation: transiently reverse the effects of transformation
[1]; 50 μM forskolin
  effect on cell division and morphological differentiation: inhibited cell division and induced morphological differentiation
  long-term effect on cell division: became confluent like the control cells
[4]; 25 μM forskolin, 5 days, single application
  effect on NIL8 cells: the cells reached the high saturation densities typical of untreated cultures

## c1ccc2c(c1)Nc1cccc3nccc-2c13 [pyrido[2,3,4-kl]acridine]
[2]; 4 μM pyrido[2,3,4-kl]acridine, 6 days
  effect on NIL8 cells: effects which were similar to those produced by the natural alkaloids
[1]
  range of effective concentrations that inhibited cell proliferation and induced morphological differentiation: 2-5 μM
  effects on cell appearance: flattened cell bodies as well as numerous long neurites
  most effective concentration for the cells tested: 2 to 5 µM
